In US8367639B2, “Hydrogels with covalent and noncovalent crosslinks” (University of Delaware, priority 2005, dated 2013):
Values joined by “and” are separate entries in the source; they are usually repeats but may differ in a detail not shown here. Equal entries are not always repeated. Where two headings read alike, the source gives them in different places. Square brackets hold non-standard residues; d marks the D form. Ends that are not written are not given here. βAla = NCCC(=O)O

Legend:
[1] = Surface plasmon resonance on LMWH-modified streptavidin chip; type: binding
Experimental: (§1) Heparin-sepharose affinity liquid chromatography was performed on an ÄKTA Explorer FPLC equipped with a HiTrap Heparin HP column (5 ml, ˜10 mg heparin/ml gel, Amersham Biosciences Corp, Piscataway, N.J.). Surface Plasmon Resonance (SPR). SPR sensorgrams were recorded on a BiaCore 3000 instrument (Biacore Inc, Piscataway, N.J.), employing a high-capacity LMWH surface created on a commercially available streptavidin-coated chip via treatment with biotinylated LMWH.
In SPR experiments, the interaction of the peptides with a LMWH-modified SA chip surface was determined under conditions described in the experimental section. […] In addition, no mass transport limitation or linked reactions were indicated. […] These faster association kinetics, relative to those reported for the ATIII and HIP (Table 2) (see also N. Yamaguchi, B. S. Chae, L. Zhang, K. L. Kiick, E. M. Furst, Rheological characterization of polysaccharide-poly (ethylene glycol) star copolymer hydrogels, Biomacromolecules 6 (4) (2005) 1931-1940) are the primary cause of the lower measured KD values for PF4ZIP-LMWH binding, and the trend of the dissociation constants is consistent with the chromatography results. […] Nevertheless, the equilibrium constants of dissociation determined via both methods are substantially lower than the concentrations employed during hydrogel formation experiments (see below).
The heparin-binding kinetics between LMWH and PF4ZIP were monitored via SPR at several temperatures between 5° C. and 37° C., to determine potential changes in binding kinetics that might alter hydrogel properties under physiological conditions.

[2] = Heparin-sepharose affinity chromatography (NaCl elution); type: binding; details: 25° C.
Experimental: as §1
For heparin affinity chromatography experiments, HBPs were loaded onto a heparin-sepharose column, and then eluted with buffer of increasing NaCl concentration. The concentration of NaCl required for peptide elution is used as an indication of the affinity of the peptide for heparin. The elution of the peptides from the heparin-sepharose column required a salt concentration of 962±10 mM for the PF4ZIP peptide.

[3] = NaCl; 25° C.; previously reported studies; cited from earlier work
[4] = 25° C.; previously reported studies; cited from earlier work

Row | kd ([1]; 5 ° C.) | kd ([1]; 15 ° C.) | Kd ([1]; 25° C.) | kd ([1]; 25° C.) | kd ([1]; 25 ° C. (Table 3)) | kd ([1]; 37 ° C.) | Substance | ka ([1]; 5 ° C.) | ka ([1]; 15 ° C.) | ka ([1]; 25° C.) | ka ([1]; 25 ° C. (Table 3)) | ka ([1]; 37 ° C.) | Salt required for elution from heparin column [2] [mM] | Salt required for elution from heparin column [3] [mM] | Kd [4] [µM] | ka [4] | kd [4]
1 | 3.74 ± 0.17 × 10^−3 s^−1 | 1.67 ± 0.03 × 10^−3 s^−1 | ~0.0115 µM and 0.0115 µM | 2.56±0.10×10^−3 s^−1 | 2.56 ± 0.10 × 10^−3 s^−1 | 2.44 ± 0.08 × 10^−3 s^−1 | CGGRMKQLEDKVKKLLKKNYHLENEVARLKKLVG [PF4ZIP] | 1.56 ± 0.01 × 10^5 M^−1s^−1 | 1.90 ± 0.04 × 10^5 M^−1s^−1 | 2.24±0.05×10^5 M^−1s^−1 | 2.24 ± 0.05 × 10^5 M^−1s^−1 | 5.11 ± 0.02 × 10^5 M^−1s^−1 | 962 ± 10 |  |  |  | 
2 |  |  |  |  |  |  | CKbAFAKLAARLYRKA (CK[βAla]FAKLAARLYRKA-NH2; N-terminus assumed; SMILES CC(C)C[C@H](NC(=O)[C@H](CCCCN)NC(=O)[C@H](C)NC(=O)[C@H](Cc1ccccc1)NC(=O)CCNC(=O)[C@H](CCCCN)NC(=O)[C@@H](N)CS)C(=O)N[C@@H](C)C(=O)N[C@@H](C)C(=O)N[C@@H](CCCNC(=N)N)C(=O)N[C@@H](CC(C)C)C(=O)N[C@@H](Cc1ccc(O)cc1)C(=O)N[C@@H](CCCNC(=N)N)C(=O)N[C@@H](CCCCN)C(=O)N[C@@H](C)C(N)=O; listed as Homo sapiens) [ATIII] |  |  |  |  |  |  | 594 ± 2 | 12.9 ± 1.3 | 1.56 ± 0.06 × 10^2 M^−1s^−1 | 2.00 ± 0.3 × 10^−3 s^−1
3 |  |  |  |  |  |  | CRPKAKAKAKAKDQTK [HIP] |  |  |  |  |  |  | 687 ± 1 | 4.2 ± 0.3 | 1.10 ± 0.08 × 10^3 M^−1s^−1 | 4.64 ± 0.02 × 10^−3 s^−1
